# Measured values taken from patent US11560385B2, “Proteasome activity enhancing compounds” (Proteostasis Therapeutics, Inc., priority 2018, dated 2023).
# Biological target: T1, USP14 (Homo sapiens (Human), UniProt P54578)
# Test: Usp14 inhibition assay (Example 5A, A-series compounds)
# Assay type: biochemical
# Conditions: average value from a minimum of two experimental determinations; read-out: Usp14 IC50 Category
# Text: Example 5A: Usp14 Inhibition Assay
# (§1) The IC50 values in the Table below represent the average value from a minimum of two experimental determinations.
# T1 sequence (P54578 whole entry, looked up): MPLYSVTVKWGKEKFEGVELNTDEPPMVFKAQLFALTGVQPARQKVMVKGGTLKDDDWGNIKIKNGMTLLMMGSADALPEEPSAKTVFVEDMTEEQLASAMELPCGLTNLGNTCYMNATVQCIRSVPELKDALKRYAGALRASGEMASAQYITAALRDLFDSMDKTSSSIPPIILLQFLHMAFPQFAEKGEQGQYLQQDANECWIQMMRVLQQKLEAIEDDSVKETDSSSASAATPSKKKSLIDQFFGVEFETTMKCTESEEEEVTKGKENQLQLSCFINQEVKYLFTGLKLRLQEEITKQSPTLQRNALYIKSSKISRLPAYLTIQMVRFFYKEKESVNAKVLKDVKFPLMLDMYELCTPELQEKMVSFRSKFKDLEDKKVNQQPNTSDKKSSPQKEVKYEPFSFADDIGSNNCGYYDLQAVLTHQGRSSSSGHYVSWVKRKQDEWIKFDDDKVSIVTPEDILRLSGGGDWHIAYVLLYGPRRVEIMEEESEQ
row,Compound,IC50 [nM]
1,"Cc1c(C(=O)CN2C3CCC2[C@@H](O)C3)c2ccc(CCC#N)cc2n1-c1ccc(Cl)cc1 (mixture of isomers) [Example 10A, (±)-3-(1-(4-Chlorophenyl)-3-(2-((2S)-2-hydroxy-7-azabicyclo[2.2.1]heptan-7-yl)acetyl)-2-methyl-1H-indol-6-yl)propanenitrile]",< 50
2,"CO[C@H]1CC2CCC1N2CC(=O)c1c(C)n(-c2ccc(Cl)cc2)c2cc(CCC#N)ccc12 (mixture of isomers) [Example 15A, (±)-3-(1-(4-Chlorophenyl)-3-(2-((2S)-2-methoxy-7-azabicyclo[2.2.1]heptan-7-yl)acetyl)-2-methyl-1H-indol-6-yl)propanenitrile]",< 50
3,"Cc1c(C(=O)CN2C3CCC2[C@@H](O)C3)c2ccc(CCCC#N)cc2n1-c1ccc(Cl)cc1 (mixture of isomers) [Example 18A, (±)-4-(1-(4-Chlorophenyl)-3-(2-((2S)-2-hydroxy-7-azabicyclo[2.2.1]heptan-7-yl)acetyl)-2-methyl-1H-indol-6-yl)butanenitrile]",< 50
4,"CO[C@H]1CC2CCC1N2CC(=O)c1c(C)n(-c2ccc(Cl)cc2)c2cc(CCCC#N)ccc12 (mixture of isomers) [Example 19A, (±)-4-(1-(4-Chlorophenyl)-3-(2-((2S)-2-methoxy-7-azabicyclo[2.2.1]heptan-7-yl)acetyl)-2-methyl-1H-indol-6-yl)butanenitrile]",< 50
5,"Cc1c(C(=O)CN2C3CCC2C(O)C3)c2ccc(CC3COC3)cc2n1-c1ccc(Cl)cc1 (stereo in doubt) [Example 13A, 1-(1-(4-Chlorophenyl)-2-methyl-6-(oxetan-3-ylmethyl)-1H-indol-3-yl)-2-((1R,2R,4S)-2-hydroxy-7-azabicyclo[2.2.1]heptan-7-yl)ethan-1-one]",< 50
6,"Cc1c(C(=O)CN2C3CC[C@@H]2C[C@](O)(C(C)(C)C)C3)c2ccc(CCC#N)cc2n1-c1ccc(Cl)cc1 (stereo in doubt) [Example 31A, 3-(3-(2-(3-(tert-Butyl)-3-hydroxy-8-azabicyclo[3.2.1]octan-8-yl)acetyl)-1-(4-chlorophenyl)-2-methyl-1H-indol-6-yl)propanenitrile]",> 100
7,"Cc1c(C(=O)CN2C3CCC2CC3)c2ccc(CCS(C)(=O)=O)cc2n1-c1ccc(Cl)cc1 [Example 1A, 2-(7-Azabicyclo[2.2.1]heptan-7-yl)-1-(1-(4-chlorophenyl)-2-methyl-6-(2-(methylsulfonyl)ethyl)-1H-indol-3-yl)ethan-1-one]",< 50
8,"Cc1c(C(=O)CN2[C@@H]3CCC[C@H]2CC3)c2ccc(CCS(C)(=O)=O)cc2n1-c1ccc(Cl)cc1 [Example 2A, 2-((1R,5S)-8-Azabicyclo[3.2.1]octan-8-yl)-1-(1-(4-chlorophenyl)-2-methyl-6-(2-(methylsulfonyl)ethyl)-1H-indol-3-yl)ethan-1-one]",< 50
9,"Cc1c(C(=O)CN2C3CCC2CC3)c2ccc(CS(C)(=O)=O)cc2n1-c1ccc(Cl)cc1 [Example 3A, 2-(7-Azabicyclo[2.2.1]heptan-7-yl)-1-(1-(4-chlorophenyl)-2-methyl-6-((methylsulfonyl)methyl)-1H-indol-3-yl)ethan-1-one]",50 to 100
10,"Cc1c(C(=O)CN2C3CCC2CC(O)C3)c2ccc(CCS(C)(=O)=O)cc2n1-c1ccc(Cl)cc1 [Example 5A, 1-(1-(4-Chlorophenyl)-2-methyl-6-(2-(methylsulfonyl)ethyl)-1H-indol-3-yl)-2-((1R,3S,5S)-3-hydroxy-8-azabicyclo[3.2.1]octan-8-yl)ethan-1-one]",< 50
11,"Cc1c(C(=O)CN2[C@H]3CC[C@@H]2[C@@H](O)C3)c2ccc(CCS(C)(=O)=O)cc2n1-c1ccc(Cl)cc1 [Example 6A, 1-(1-(4-Chlorophenyl)-2-methyl-6-(2-(methylsulfonyl)ethyl)-1H-indol-3-yl)-2-((1R,2S,4S)-2-hydroxy-7-azabicyclo[2.2.1]heptan-7-yl)ethan-1-one]",< 50
12,"Cc1c(C(=O)CN2CCC(O)CC2)c2ccc(CCS(C)(=O)=O)cc2n1-c1ccc(Cl)cc1 [Example 7A, 1-(1-(4-Chlorophenyl)-2-methyl-6-(2-(methylsulfonyl)ethyl)-1H-indol-3-yl)-2-(4-hydroxypiperidin-1-yl)ethan-1-one]",< 50
13,"Cc1c(C(=O)CN2C3CCC2CC3)c2ccc(CCC#N)cc2n1-c1ccc(Cl)cc1 [Example 8A, 3-(3-(2-(7-Azabicyclo[2.2.1]heptan-7-yl)acetyl)-1-(4-chlorophenyl)-2-methyl-1H-indol-6-yl)propanenitrile]",< 50
14,Cc1c(C(=O)CN2CCC(O)CC2)c2ccc(CCC#N)cc2n1-c1ccc(Cl)cc1 [Example 9A],> 100
15,"Cc1c(C(=O)CN2C3CCC2CC3)c2ccc(CC3COC3)cc2n1-c1ccc(Cl)cc1 [Example 11A, 2-(7-Azabicyclo[2.2.1]heptan-7-yl)-1-(1-(4-chlorophenyl)-2-methyl-6-(oxetan-3-ylmethyl)-1H-indol-3-yl)ethan-1-one]",< 50
16,"CO[C@H]1C[C@@H]2CC[C@H]1N2CC(=O)c1c(C)n(-c2ccc(Cl)cc2)c2cc(CC3COC3)ccc12 [Example 12A, 1-(1-(4-Chlorophenyl)-2-methyl-6-(oxetan-3-ylmethyl)-1H-indol-3-yl)-2-((1R,2S,4S)-2-methoxy-7-azabicyclo[2.2.1]heptan-7-yl)ethan-1-one]",50 to 100
17,"Cc1c(C(=O)CN2CCC(O)CC2)c2ccc(CC3COC3)cc2n1-c1ccc(Cl)cc1 [Example 14A, 1-(1-(4-Chlorophenyl)-2-methyl-6-(oxetan-3-ylmethyl)-1H-indol-3-yl)-2-(4-hydroxypiperidin-1-yl)ethan-1-one]",50 to 100
18,"Cc1c(C(=O)CN2C3CCC2CC3)c2ccc(CCS(=O)(=O)C3CC3)cc2n1-c1ccc(Cl)cc1 [Example 16A, 2-(7-Azabicyclo[2.2.1]heptan-7-yl)-1-(1-(4-chlorophenyl)-6-(2-(cyclopropylsulfonyl)ethyl)-2-methyl-1H-indol-3-yl)ethan-1-one]",< 50

# Biological target: T1, USP14
# Test: Usp14 inhibition assay (Example 57B, B-series compounds)
# Assay type: biochemical
# Conditions: IC50 class; average value from a minimum of two experimental determinations
# Text: Example 57B: Usp14 Inhibition Assay
# as §1
row,Compound,IC50 [nM]
1,"Cc1cc(C(=O)CN2C3CC4CC2CC(O)(C4)C3)c(C)n1-c1ccc(C#N)cc1 [Example 81B, 4-(3-(2-((5s,7s)-5-Hydroxy-2-azaadamantan-2-yl)acetyl)-2,5-dimethyl-1H-pyrrol-1-yl)benzonitrile]",50 to 500
2,"Cc1cc(C(=O)CN2C3CC4CC2CC(C3)O4)c(C)n1-c1ccc(C#N)cc1 [Example 84B, 4-(3-(2-((1r,3r)-2-Oxa-6-azaadamantan-6-yl)acetyl)-2,5-dimethyl-1H-pyrrol-1-yl)benzonitrile]",50 to 500
3,"Cc1cc(C(=O)CN2C3CCCC2CC(O)C3)c(C)n1-c1ccc(C#N)cc1 [Example 85B, 4-(3-(2-((1R,3s,5S)-3-Hydroxy-9-azabicyclo[3.3.1]nonan-9-yl)acetyl)-2,5-dimethyl-1H-pyrrol-1-yl)benzonitrile]",50 to 500
4,"Cc1cc(C(=O)CN2C3CCCC2CC(O)C3)c(C)n1-c1ccc(C#N)cc1 [Example 86B, 4-(3-(2-((1R,3r,5S)-3-Hydroxy-9-azabicyclo[3.3.1]nonan-9-yl)acetyl)-2,5-dimethyl-1H-pyrrol-1-yl)benzonitrile]",50 to 500
5,"Cc1cc(C(=O)CN2C3CCCC2CCC3)c(C)n1-c1ccc(C#N)cc1 [Example 87B, 4-(3-(2-((1s,5s)-9-Azabicyclo[3.3.1]nonan-9-yl)acetyl)-2,5-dimethyl-1H-pyrrol-1-yl)benzonitrile]",50 to 500
6,"COC1C[C@H]2CC[C@H](C1)N2CC(=O)c1cc(C)n(-c2ccc(C#N)cc2)c1C (stereo partly drawn) [Example 88B, 4-(3-(2-((1R,3r,5S)-3-Methoxy-8-azabicyclo[3.2.1]octan-8-yl)acetyl)-2,5-dimethyl-1H-pyrrol-1-yl)benzonitrile]",50 to 500
7,"COC1C[C@H]2CC[C@H](C1)N2CC(=O)c1cc(C)n(-c2ccc(C#N)cc2)c1C (stereo partly drawn) [Example 89B, 4-(3-(2-((1R,3s,5S)-3-Methoxy-8-azabicyclo[3.2.1]octan-8-yl)acetyl)-2,5-dimethyl-1H-pyrrol-1-yl)benzonitrile]",50 to 500
8,"Cc1c(F)c(C(=O)CN2C3CCC2CC3)c(C)n1-c1ccc(C#N)cc1 [Example 104B, 4-(3-(2-((1s,4s)-7-Azabicyclo[2.2.1]heptan-7-yl)acetyl)-4-fluoro-2,5-dimethyl-1H-pyrrol-1-yl)benzonitrile]",50 to 500
9,"Cc1cc(C(=O)CN2[C@@H]3CC[C@H]2[C@@H](C)[C@H]3C)c(C)n1-c1ccc(C#N)cc1 [Example 124B, 4-(3-(2-((1R,2R,3S,4S)-2,3-Dimethyl-7-azabicyclo[2.2.1]heptan-7-yl)acetyl)-2,5-dimethyl-1H-pyrrol-1-yl)benzonitrile]",50 to 500
10,"Cc1cc(C(=O)CN2C3CCC2(C)CC3)c(C)n1-c1ccc(C#N)cc1 [Example 125B, 4-(2,5-Dimethyl-3-(2-(1-methyl-7-azabicyclo[2.2.1]heptan-7-yl)acetyl)-1H-pyrrol-1-yl)benzonitrile]",50 to 500
11,"Cc1cc(C(=O)CN2C3CCC2(CO)CC3)c(C)n1-c1ccc(C#N)cc1 [Example 126B, 4-(3-(2-(1-(Hydroxymethyl)-7-azabicyclo[2.2.1]heptan-7-yl)acetyl)-2,5-dimethyl-1H-pyrrol-1-yl)benzonitrile]",50 to 500
12,"Cc1cc(C(=O)CN2C3CCC2(C(=O)O)CC3)c(C)n1-c1ccc(C#N)cc1 [Example 127B, 7-(2-(1-(4-Cyanophenyl)-2,5-dimethyl-1H-pyrrol-3-yl)-2-oxoethyl)-7-azabicyclo[2.2.1]heptane-1-carboxylic Acid]",> 500
13,Cc1nc(Cc2c(Cl)c(C(=O)CN3C4CCC3[C@@H](O)C4)c(C)n2-c2ccc(C#N)cc2)cs1 (stereo partly drawn) [Example 128B],< 50
14,"Cc1c(C(=O)CN2C3CCC2CC3)cc(C#N)n1-c1ccc(C#N)cc1 [Example 137B, 4-(2-(7-Azabicyclo[2.2.1]heptan-7-yl)acetyl)-1-(4-cyanophenyl)-5-methyl-1H-pyrrole-2-carbonitrile]",< 50
15,"Cc1cc(C(=O)CN2[C@@H]3CC[C@H]2[C@H](C)[C@@H]3C)c(C)n1-c1ccc(C#N)cc1 [Example 138B, 4-(3-(2-((1R,2S,3R,4S)-2,3-Dimethyl-7-azabicyclo[2.2.1]heptan-7-yl)acetyl)-2,5-dimethyl-1H-pyrrol-1-yl)benzonitrile]",> 500
